In article PMC6116703, “Ethenesulfonyl fluoride derivatives as telomerase inhibitors: structure-based design, SAR, and anticancer evaluation in vitro” (Journal of Enzyme Inhibition and Medicinal Chemistry, 2018):
Like-named read-outs stand apart in the source and are kept apart here.

Tests used:
human melanoma cell A375 = assay: Cell proliferation (MTT) assay, A375; format: cell-based
Protocol: (§1) The antiproliferative activities evaluation was conducted by using a modified procedure as described in the literature. Briefly, target tumour cells were grown to log phase in RPMI 1640 medium supplemented with 10% fetal bovine serum. After diluting to 3 × 10^4 cells mL^−1 with the complete medium, 100 µL of the obtained cell suspension was added to each well of 96-well culture plates. The subsequent incubation was performed at 37 °C, 5% CO2 atmosphere for 24 h before subjecting to antiproliferation assessment. The tested samples at pre-set concentrations were added to six wells with Doxorubicin (AMD) co-assayed as a positive reference. After 48 h of exposure period, 25 µL of PBS containing 2.5 mg·mL^−1 of MTT was added to each well. After 4 h, the medium was replaced by 150 µL DMSO to dissolve the purple formazan crystals produced. The absorbance at 570 nm of each well was measured using an ELISA plate reader. The data represented the mean of three experiments in triplicate and were expressed as means ± SD using Student’s test.

[1] = tested on: human breast cancer cell MDA-MB-231; assay: Cell proliferation (MTT) assay, MDA-MB-231; format: cell-based
Protocol: as §1

[2] = tested on: human hepatoma cell SMMC-7721; assay: Cell proliferation (MTT) assay, SMMC-7721; format: cell-based; conditions: read-out: IC50 SMMC-7721
Protocol: as §1

[3] = tested on: human gastric cancer cells SGC-7901; assay: Cell proliferation (MTT) assay, SGC-7901; format: cell-based; conditions: read-out: IC50 SGC-7901
Protocol: as §1

telomerase = target: T1, telomerase (Homo sapiens, UniProt O14746); assay: Telomerase activity TRAP-PCR-ELISA assay (A375 cell extract); format: biochemical; conditions: IC50 inhibitory activity against telomerase, TRAP-PCR-ELISA, A375 cells, 24 h treatment
T1 construct: endogenous in cells; host or cells: A375 human melanoma cells
T1 sequence (O14746 whole entry): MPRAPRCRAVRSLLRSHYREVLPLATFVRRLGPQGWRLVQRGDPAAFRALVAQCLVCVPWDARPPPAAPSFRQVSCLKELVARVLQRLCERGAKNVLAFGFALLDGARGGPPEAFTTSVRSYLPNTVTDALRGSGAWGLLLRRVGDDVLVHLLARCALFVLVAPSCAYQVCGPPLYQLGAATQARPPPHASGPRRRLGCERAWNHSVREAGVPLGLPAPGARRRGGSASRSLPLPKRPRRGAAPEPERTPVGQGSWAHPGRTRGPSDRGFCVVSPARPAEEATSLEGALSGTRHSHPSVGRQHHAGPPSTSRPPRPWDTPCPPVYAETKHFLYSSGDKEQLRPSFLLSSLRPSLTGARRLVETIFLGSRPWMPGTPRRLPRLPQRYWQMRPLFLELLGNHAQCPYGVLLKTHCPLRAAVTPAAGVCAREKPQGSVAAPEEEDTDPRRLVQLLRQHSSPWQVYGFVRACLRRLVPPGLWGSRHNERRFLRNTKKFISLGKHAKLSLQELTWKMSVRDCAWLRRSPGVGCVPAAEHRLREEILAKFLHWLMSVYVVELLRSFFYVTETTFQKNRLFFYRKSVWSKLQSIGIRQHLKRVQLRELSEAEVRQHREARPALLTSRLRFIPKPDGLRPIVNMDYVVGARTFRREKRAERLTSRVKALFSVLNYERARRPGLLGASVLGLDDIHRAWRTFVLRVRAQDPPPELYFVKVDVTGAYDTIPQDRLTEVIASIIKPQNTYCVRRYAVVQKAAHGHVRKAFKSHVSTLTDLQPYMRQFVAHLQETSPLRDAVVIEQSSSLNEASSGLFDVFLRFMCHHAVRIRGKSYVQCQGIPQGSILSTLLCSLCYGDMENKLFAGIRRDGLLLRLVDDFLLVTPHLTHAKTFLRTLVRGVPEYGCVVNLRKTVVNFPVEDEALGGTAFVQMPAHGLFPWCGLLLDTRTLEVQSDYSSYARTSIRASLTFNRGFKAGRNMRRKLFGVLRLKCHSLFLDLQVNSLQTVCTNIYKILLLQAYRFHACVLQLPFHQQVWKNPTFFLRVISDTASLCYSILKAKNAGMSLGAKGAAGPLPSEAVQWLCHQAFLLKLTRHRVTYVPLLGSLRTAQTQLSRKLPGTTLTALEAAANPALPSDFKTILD
Protocol: Thirty-six compounds were tested in a search for inhibitors of telomerase activity using the TRAP-PCR-ELISA assay. In detail, the A375 cells were firstly maintained in RPMI 1640 buffer (Hyclone, Miami, FL), supplemented with 10% fetal bovineserum (GIBCO, New York, NY), streptomycin (0.1 mg/mL) and penicillin (100 IU/mL) at 37 °C in a humidified atmosphere containing 5% CO2. After trypsinisation, 5 × 10^4 cultured cells in logarithmic growth were seeded into T25 flasks (Corning, New York, NY) and cultured to allow to adherence. […] After 24 h treatment, the cells were harvested by cell scraper orderly followed by washing once with PBS. The cells were lysed in 150 µL RIPA cell lysis buffer (Santa Cruz, Santa Cruz, CA), and incubated on ice for 30 min. The cellular supernatants were obtained via centrifugation at 12,000g for 20 min at 4 °C and stored at –80 °C. The TRAP-PCR-ELISA assay was performed using a telomerase detection kit (Roche, Basel, Switzerland) according to the manufacturer’s protocol. In brief, 2 µL of cell extracts were mixed with 48 µL TRAP reaction mixtures. TRAP primers and Taq polymerase are incubated at 25 °C for 30 min. PCR was then initiated at 94 °C, 120 s for predenaturation and performed using 35 cycles each consisting of 94 °C for 30 s, 50 °C for 30 s, 72 °C for 90 s. Then 20 µL of PCR products were hybridised to a digoxigenin (DIG)-labelled telomeric repeat specific detection probe. And the PCR products were immobilised via the biotin-labelled primer to a streptavidin-coated microtiter plate subsequently. The immobilised DNA fragments were detected with a peroxidase-conjugated anti-DIG antibody and visualised following the addition of the stop regent. The microtitre plate was assessed on TECAN Infinite M200 microplate reader (Mannedorf, Switzerland) at a wavelength of 490 nm, and the final value were presented as mean ± SD[23].

[4] = tested on: human normal liver cell (L-02); assay: Proliferative inhibition assay of human normal cell L-02 (MTT); format: cell-based; conditions: normal liver cells
Protocol: as §1
(§2) In order to determine the selective cancer cell toxicity of some title compounds. We subsequently conducted a proliferative inhibition assay with human normal liver cell (L-02) and gastric mucosa cell (GES-1).

[5] = tested on: gastric mucosa cell (GES-1); assay: Proliferative inhibition assay of human normal cell GES-1 (MTT); format: cell-based
Protocol: as §1, §2

[6] = tested on: human gastric cancer cells MGC-803; assay: Cell proliferation (MTT) assay, MGC-803; format: cell-based; conditions: read-out: IC50 MGC-803
Protocol: as §1

[7] = antiproliferative, MTT, 48 h exposure, read-out: IC50 A375
[8] = antiproliferative, MTT, 48 h exposure, read-out: IC50 MDA-MB-231
[9] = antiproliferative, MTT, 48 h exposure
[10] = Homo sapiens, A-375, 48 h, read-out: IC50 A375, antiproliferative, MTT, 48 h exposure
[11] = Homo sapiens, MDA-MB-231, 48 h, read-out: IC50 MDA-MB-231, antiproliferative, MTT, 48 h exposure
[12] = read-out: IC50 A375, antiproliferative, MTT, 48 h exposure
[13] = Homo sapiens, GES1, normal gastric mucosa cells

SMILES	IC50 (human melanoma cell A375; [7]) [µM]	IC50 [1, 8] [µM]	IC50 (human melanoma cell A375; [10]) [µM]	IC50 [1, 11] [µM]	IC50 ([2]; Homo sapiens, SMMC-7721, 48 h) [µM]	IC50 ([3]; Homo sapiens, SGC-7901, 48 h) [µM]	IC50 (telomerase) [µM]	IC50 ([6]; Homo sapiens, MGC-803, 48 h) [µM]	also measured
CC(C)(C)c1ccc(/C=C/C=C/S(=O)(=O)F)cc1 [Compound 50]	20.7 ± 1.39	31.6 ± 1.2							IC50 [2, 9]: 29.1 ± 1.27 µM; IC50 [3, 9]: 26.9 ± 0.56 µM
COc1cc(/C=C/C=C/S(=O)(=O)F)cc(OC)c1 [Compound 56]			6.92 ± 0.44	12.2 ± 0.92	19.3 ± 0.82	34.5 ± 1.04	3.2 ± 0.55		
O=S(=O)(F)/C=C/C=C/c1ccc(/C=C/S(=O)(=O)F)cc1 [Compound 57, (1E,3E)-4-(4-((E)-2-(fluorosulfonyl)vinyl)phenyl)buta-1,3-diene-1-sulfonyl fluoride]			~3	3.22 ± 0.18			0.97 ± 0.12		IC50 (human melanoma cell A375; [12]): 1.58 ± 0.06 µM; IC50 ([4]; Homo sapiens): < 2000 µM; IC50 [4]: 2010 ± 160 µM; IC50 [5, 13]: < 2000 µM; IC50 ([5]; normal gastric mucosa cells): 2190 ± 180 µM
Cc1ccc(S(=O)(=O)n2cc(/C=C/S(=O)(=O)F)cn2)cc1 [Compound 61]			27.3 ± 1	26.9 ± 1.2	28.2 ± 1.49			27.1 ± 1.03	
CS(=O)(=O)c1ccc(/C=C/S(=O)(=O)F)cc1 [Compound 66]	8.56 ± 0.49	30.3 ± 1.22							IC50 [2, 9]: 52 ± 1.7 µM; IC50 [6, 9]: 19.6 ± 1.17 µM
COc1cc(/C=C/S(=O)(=O)F)cc(OC)c1 [Compound 67]			8.29 ± 0.42	12.1 ± 0.37	15 ± 0.6	50.3 ± 1.17	1.87 ± 0.47	16.1 ± 0.82	
O=S(=O)(F)/C=C/c1cc(Cl)cc(Cl)c1 [Compound 69]			8.79 ± 0.61	7.95 ± 0.4	11.5 ± 0.39	36.8 ± 1.25	4.22 ± 0.71	25.1 ± 0.54	
O=S(=O)(F)/C=C/c1cccc(/C=C/S(=O)(=O)F)c1 [Compound 70]			~3	4.22 ± 0.2	3 ± 0.18	5.38 ± 0.3	1.01 ± 0.13	3.15 ± 0.27	IC50 (human melanoma cell A375; [12]): 3.09 ± 0.19 µM
COc1ccc(Cl)cc1/C=C/S(=O)(=O)F [Compound 71]			8.65 ± 0.33	8.09 ± 0.52	23.2 ± 0.78		6.08 ± 1.3	20.8 ± 0.79	
O=S(=O)(F)/C=C/c1cccc(I)c1 [Compound 72]	13 ± 0.77	22.6 ± 1							IC50 [2, 9]: 16.1 ± 0.91 µM; IC50 [6, 9]: 44.9 ± 1.13 µM
CC(C)c1cccc(/C=C/S(=O)(=O)F)c1 [Compound 74]	26.8 ± 1.22	34.7 ± 1.2							IC50 [3, 9]: 31.8 ± 0.82 µM; IC50 [6, 9]: 35.3 ± 1.25 µM
O=S(=O)(F)/C=C/c1cccc(-c2ccccc2)c1 [Compound 75]			9.27 ± 0.91	21.3 ± 1.04	32.1 ± 1.02	21.9 ± 0.61	4.4 ± 2		IC50 ([4]; Homo sapiens): 2440 ± 220 µM; IC50 [5, 13]: 1890 ± 170 µM
O=S(=O)(F)/C=C/c1ccccc1Br [Compound 76]	18 ± 1.09	36 ± 1.2							IC50 [3, 9]: 50.2 ± 1.79 µM
CCOC(=O)c1cccc(/C=C/S(=O)(=O)F)c1 [Compound 77]	13.7 ± 1.29	19.4 ± 0.79							IC50 [2, 9]: 23.6 ± 1.45 µM; IC50 [6, 9]: 51.8 ± 0.87 µM
O=S(=O)(F)/C=C/c1cc(Cl)nc(Cl)c1 [Compound 80]						26.8 ± 1.01	49.3 ± 2.55		
